Measured values: PubChem BioAssay AID330 (DTP/NCI, 2004)
Several values for one entry are separate records, joined by “and”; a condition that tells them apart may be missing. Equal entries are not always repeated. Toxic doses and inconclusive results are not listed.

System: P388 leukemia ip, CD2F1 mice, survival T/C
Assay: NCI In Vivo Anticancer Drug Screen. Data for tumor model P388 Leukemia (intraperitoneal) in CD2F1 (CDF1) mice
Settings: endpoint: median survival time, higher = longer survival
Outline: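 Mice carrying the transplanted tumor received test compound or vehicle. Survival was recorded in each group, and the value is the treated-group measurement divided by that of the vehicle-treated control group.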

[1] = dose: 50.0 mg/kg/injection, schedule: Q01DX005 (ip), vehicle: Klucel (hydroxypropylcellulose) (HPC)
[2] = dose: 100.0 mg/kg/injection, schedule: Q01DX005 (ip), vehicle: Klucel (hydroxypropylcellulose) (HPC)
[3] = dose: 200.0 mg/kg/injection, schedule: Q01DX005 (ip), vehicle: Klucel (hydroxypropylcellulose) (HPC)
[4] = dose: 50.0 mg/kg/injection, schedule: Q01DX005 (ip), vehicle: saline with Tween-80
[5] = dose: 100.0 mg/kg/injection, schedule: Q01DX005 (ip), vehicle: saline with Tween-80
[6] = dose: 200.0 mg/kg/injection, schedule: Q01DX005 (ip), vehicle: saline with Tween-80
[7] = dose: 100.0 mg/kg/injection, schedule: Q04DX003 (ip), vehicle: saline with Tween-80
[8] = dose: 200.0 mg/kg/injection, schedule: Q04DX003 (ip), vehicle: saline with Tween-80
[9] = dose: 400.0 mg/kg/injection, schedule: Q04DX003 (ip), vehicle: saline with Tween-80
[10] = dose: 240.0 mg/kg/injection, schedule: Q01DX005 (ip), vehicle: saline with Tween-80

SMILES: Cc1ccc(/C=N/N)s1
- T/C (dose: 50.0 mg/kg/injection, schedule: Q04DX003 (ip), vehicle: other): 90 % of control
- T/C (dose: 100.0 mg/kg/injection, schedule: Q04DX003 (ip), vehicle: other): 100 % of control
- T/C (dose: 200.0 mg/kg/injection, schedule: Q04DX003 (ip), vehicle: other): 100 % of control

SMILES: CC1=NN(C(=O)c2ccccc2)C(=O)C1N=Nc1ccc(C(=O)O)cc1 (stereo not drawn)
- T/C (dose: 25.0 mg/kg/injection, schedule: Q01DX005 (ip), vehicle: Klucel (hydroxypropylcellulose) (HPC)): 110 % of control
- T/C [1]: 95 % of control
- T/C [2]: 104 % of control
- T/C [3]: 99 % of control

SMILES: Clc1ccc(CN2CCCN(Cc3ccc(Cl)cc3)C2c2cc3ccccc3c3ccccc23)cc1
- T/C [4]: 99 % of control
- T/C [5]: 97 % of control
- T/C [6]: 93 % of control

SMILES: N#Cc1c(-c2ccc(Cl)cc2)c(-c2ccc(Cl)cc2)nn(CCOC(=O)CN)c1=O
- T/C (dose: 3.13 mg/kg/injection, schedule: Q01DX005 (ip), vehicle: distilled water + Tween-80): 99 % of control and 100 % of control
- T/C (dose: 6.25 mg/kg/injection, schedule: Q01DX005 (ip), vehicle: distilled water + Tween-80): 100 % of control and 103 % of control
- T/C (dose: 12.5 mg/kg/injection, schedule: Q01DX005 (ip), vehicle: distilled water + Tween-80): 105 % of control and 115 % of control and 97 % of control
- T/C (dose: 12.5 mg/kg/injection, schedule: Q04DX002 (ip), vehicle: distilled water + Tween-80): 103 % of control
- T/C (dose: 25.0 mg/kg/injection, schedule: Q01DX005 (ip), vehicle: distilled water + Tween-80): 108 % of control and 120 % of control (2×)
- T/C (dose: 25.0 mg/kg/injection, schedule: Q04DX002 (ip), vehicle: distilled water + Tween-80): 111 % of control and 112 % of control
- T/C (dose: 50.0 mg/kg/injection, schedule: Q01DX005 (ip), vehicle: distilled water + Tween-80): 155 % of control
- T/C (dose: 50.0 mg/kg/injection, schedule: Q01DX005 (ip), vehicle: saline): 116 % of control

SMILES: CCN(CC)CCOC(=O)Cc1cc(C)cc2c(=O)cc(-c3ccccc3)oc12
- T/C [1]: 97 % of control
- T/C [2]: 102 % of control
- T/C [3]: 101 % of control

SMILES: COc1ccc(-c2cnnn2Cc2ccco2)cc1
- T/C (dose: 100.0 mg/kg/injection, schedule: Q04DX002 (ip), vehicle: Klucel (hydroxypropylcellulose) (HPC)): 105 % of control
- T/C (dose: 200.0 mg/kg/injection, schedule: Q04DX002 (ip), vehicle: Klucel (hydroxypropylcellulose) (HPC)): 100 % of control
- T/C (dose: 400.0 mg/kg/injection, schedule: Q04DX002 (ip), vehicle: Klucel (hydroxypropylcellulose) (HPC)): 102 % of control

SMILES: COC(=O)C1(O)C(=O)NC2=C1C(=O)c1ccccc1C2=O (stereo not drawn)
- T/C (dose: 12.5 mg/kg/injection, schedule: Q01DX005 (ip), vehicle: saline with Tween-80): 99 % of control and 95 % of control
- T/C (dose: 25.0 mg/kg/injection, schedule: Q01DX005 (ip), vehicle: saline with Tween-80): 98 % of control and 110 % of control
- T/C [4]: 105 % of control

SMILES: O=C(OCc1ccccc1)N1Cc2cc3ccccc3nc2C1
- T/C [7]: 103 % of control
- T/C [8]: 103 % of control
- T/C [9]: 101 % of control

SMILES: COC(=O)C1=C(C(=O)OC)C23C(=O)c4ccc(OC)c(OC)c4C1(OC)N2CCc1cc2c(cc13)OCO2 (stereo not drawn)
- T/C (dose: 50.0 mg/kg/injection, schedule: Q04DX002 (ip), vehicle: saline with Tween-80): 96 % of control
- T/C (dose: 100.0 mg/kg/injection, schedule: Q04DX002 (ip), vehicle: saline with Tween-80): 96 % of control
- T/C (dose: 200.0 mg/kg/injection, schedule: Q04DX002 (ip), vehicle: saline with Tween-80): 100 % of control

SMILES: COC1OC(CNC(=O)N(CCCl)N=O)C(O)C(O)C1O (stereo not drawn)
- T/C (dose: 1.56 mg/kg/injection, schedule: Q01DX009 (ip), vehicle: saline): 182 % of control
- T/C (dose: 3.12 mg/kg/injection, schedule: Q01DX009 (ip), vehicle: saline): 204 % of control
- T/C (dose: 3.12 mg/kg/injection, schedule: Q04DX002 (ip), vehicle: saline): 157 % of control
- T/C (dose: 6.25 mg/kg/injection, schedule: Q01DX009 (ip), vehicle: saline): 248 % of control
- T/C (dose: 6.25 mg/kg/injection, schedule: Q04DX002 (ip), vehicle: saline): 212 % of control
- T/C (dose: 10.0 mg/kg/injection, schedule: Q04DX002 (ip), vehicle: saline): 278 % of control
- T/C (dose: 12.5 mg/kg/injection, schedule: Q01DX009 (ip), vehicle: saline): 263 % of control
- T/C (dose: 12.5 mg/kg/injection, schedule: Q04DX002 (ip), vehicle: saline): 277 % of control
- T/C (dose: 20.0 mg/kg/injection, schedule: Q04DX002 (ip), vehicle: saline): 288 % of control
- T/C (dose: 25.0 mg/kg/injection, schedule: Q04DX002 (ip), vehicle: saline): 222 % of control
- T/C (dose: 40.0 mg/kg/injection, schedule: Q04DX002 (ip), vehicle: saline): 86 % of control

SMILES: Cc1c[n+]([O-])n(-c2ccccc2)n1
- T/C [4]: 101 % of control
- T/C [5]: 97 % of control
- T/C [6]: 103 % of control

SMILES: CCCCCCCCCCC(=O)N(C(C)CC(C)C)C1CC(C)CC(C)(C)C1 (stereo not drawn)
- T/C [4]: 104 % of control
- T/C [5]: 100 % of control
- T/C [6]: 101 % of control

SMILES: CN(C)CCNC1=CC(=O)c2ccccc2C1=O
- T/C (dose: 12.5 mg/kg/injection, schedule: Q01DX009 (ip), vehicle: distilled water + Tween-80): 94 % of control
- T/C (dose: 25.0 mg/kg/injection, schedule: Q01DX009 (ip), vehicle: distilled water + Tween-80): 101 % of control
- T/C (dose: 50.0 mg/kg/injection, schedule: Q01DX009 (ip), vehicle: distilled water + Tween-80): 100 % of control
- T/C (dose: 100.0 mg/kg/injection, schedule: Q01DX009 (ip), vehicle: distilled water + Tween-80): 97 % of control

SMILES: [CH3][Sn]([CH3])([S]P(=S)(c1ccccc1)c1ccccc1)[S]P(=S)(c1ccccc1)c1ccccc1
- T/C [1]: 118 % of control
- T/C [2]: 117 % of control

SMILES: O=C1c2ccccc2C(=O)N1Cc1ccccc1
- T/C [7]: 104 % of control
- T/C [8]: 95 % of control
- T/C [9]: 100 % of control

SMILES: O=C1C=CC(=O)N1CC[P+](c1ccccc1)(c1ccccc1)c1ccccc1
- T/C (dose: 0.78 mg/kg/injection, schedule: Q01DX009 (ip), vehicle: water): 118 % of control
- T/C (dose: 1.56 mg/kg/injection, schedule: Q01DX009 (ip), vehicle: water): 102 % of control
- T/C (dose: 3.13 mg/kg/injection, schedule: Q01DX009 (ip), vehicle: water): 106 % of control
- T/C (dose: 6.25 mg/kg/injection, schedule: Q01DX009 (ip), vehicle: water): 105 % of control
- T/C (dose: 12.5 mg/kg/injection, schedule: Q01DX009 (ip), vehicle: water): 112 % of control
- T/C (dose: 25.0 mg/kg/injection, schedule: Q01DX009 (ip), vehicle: water): 112 % of control and 120 % of control

SMILES: CCCCCCCCCCCCCCCCONc1ccnc(=O)[nH]1
- T/C (dose: 37.5 mg/kg/injection, schedule: Q01DX001 (ip), vehicle: Klucel (hydroxypropylcellulose) (HPC)): 91 % of control
- T/C (dose: 75.0 mg/kg/injection, schedule: Q01DX001 (ip), vehicle: Klucel (hydroxypropylcellulose) (HPC)): 91 % of control

SMILES: O=C1C=CC(Nc2cccc([N+](=O)[O-])c2)C1Nc1cccc([N+](=O)[O-])c1 (stereo not drawn)
- T/C (dose: 7.5 mg/kg/injection, schedule: Q01DX005 (ip), vehicle: saline with Tween-80): 102 % of control
- T/C (dose: 15.0 mg/kg/injection, schedule: Q01DX005 (ip), vehicle: saline with Tween-80): 90 % of control
- T/C (dose: 30.0 mg/kg/injection, schedule: Q01DX005 (ip), vehicle: saline with Tween-80): 91 % of control
- T/C [10]: 88 % of control and 92 % of control

SMILES: NCCCCC(C(=O)NC(Cc1ccccc1)C(=O)O)N(C(=O)OCc1ccccc1)C(=O)OCc1ccccc1 (stereo not drawn)
- T/C [4]: 96 % of control
- T/C [5]: 101 % of control
- T/C [6]: 92 % of control

SMILES: CCOC(=O)c1ccc(NC(N)=O)cc1
- T/C (dose: 25.0 mg/kg/injection, schedule: Q01DX009 (ip), vehicle: other): 101 % of control
- T/C (dose: 50.0 mg/kg/injection, schedule: Q01DX009 (ip), vehicle: other): 102 % of control
- T/C (dose: 100.0 mg/kg/injection, schedule: Q01DX009 (ip), vehicle: other): 98 % of control
- T/C (dose: 200.0 mg/kg/injection, schedule: Q01DX009 (ip), vehicle: other): 98 % of control
- T/C (dose: 400.0 mg/kg/injection, schedule: Q01DX009 (ip), vehicle: other): 93 % of control

SMILES: O=C(OC1C2COC(O2)C(OC(=O)c2ccccc2)C1OC(=O)c1ccccc1)c1ccccc1 (stereo not drawn)
- T/C [1]: 104 % of control
- T/C [2]: 101 % of control
- T/C [3]: 104 % of control

SMILES: COC(=O)CC1C=CC(OC)[C@@]2(C)C(=O)c3ccccc3C(=O)[C@@H]12 (stereo partly drawn)
- T/C (dose: 60.0 mg/kg/injection, schedule: Q01DX005 (ip), vehicle: saline with Tween-80): 93 % of control
- T/C (dose: 120.0 mg/kg/injection, schedule: Q01DX005 (ip), vehicle: saline with Tween-80): 106 % of control
- T/C [10]: 101 % of control

SMILES: CCOC(=O)c1c[nH]c2ccc3[nH]cnc3c2c1=O
- T/C [1]: 95 % of control
- T/C [2]: 99 % of control
- T/C [3]: 95 % of control
